ChEMBL document CHEMBL4219093, “New 4-aryl-1,3,2-oxathiazolylium-5-olates: Chemical synthesis and photochemical stability of a novel series of S-nitrosothiols” (Bioorg Med Chem Lett, 2018)

Tests used:
Assay type in all cases: physicochemical
[1] = Drug metabolism assessed as ring opening in EtOH/H2O at 75 mM measured after 40 mins under dark condition by UV-vis spectrophotometric method; settings: for degraded at 40 min: EtOH/H2O, read-out: Drug metabolism; for Drug metabolism: 40 min, 75000 µM
[2] = Photochemical stability of the compound in EtOH/H2O assessed as ring opening by measuring compound decomposition at 75 mM measured in presence of ambient daylight conditions after 40 mins by UV-vis spectrophotometric method; settings: for degraded at 40 min: EtOH/H2O, read-out: Drug degradation
[3] = Photochemical stability of the compound assessed as compound decomposition in phosphate buffer at pH 7.4 exposed to daylight at 0.4 mM measured over 3 hrs by UV-Vis absorbance method; settings: read-out: Drug degradation

[O-]c1on[s+]c1-c1cccc(Cl)c1
degraded at 40 min [1]: 40 to 80%

[O-]c1on[s+]c1-c1ccc(F)cc1
degraded at 40 min [1]: 40 to 80%
degraded at 40 min [2]: 76%

[O-]c1on[s+]c1-c1ccccc1Cl
Drug metabolism [1]: Metabolite_Detected

[O-]c1on[s+]c1-c1ccc(Cl)cc1
Drug metabolism [1]: Metabolite_Detected
degraded at 40 min [2]: 42%

[O-]c1on[s+]c1-c1ccc(F)cc1F
Drug metabolism [1]: Metabolite_Detected
Stability ([2]; 40 min, 75000 µM): Stable

[O-]c1on[s+]c1-c1cc(F)cc(F)c1
degraded at 40 min [1]: 40 to 80%

[O-]c1on[s+]c1-c1ccccc1
degraded at 3 h, 400 µM [3]: 7%
degraded at 40 min [1]: 48%
